Test results: PubChem BioAssay (NCI)
“And” between values parts separate entries of the source, which are not always exact repeats. Equal entries are not always repeated.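 Test compounds were applied to cells in 96-well plates for 48 hours at 5 doses. GI50 marks 50% less growth. TGI is the concentration that stops growth completely.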

What was measured:
Experiment in all cases: NCI tumour cell line growth inhibition, 48 h
[1] = tested on: RPMI-8226 leukemia
[2] = tested on: TK-10 renal
[3] = tested on: HL-60(TB) leukemia
[4] = tested on: HT29 colon
[5] = tested on: EKVX NSCLC
[6] = tested on: SNB-19 CNS
[7] = tested on: NCI-H23 lung
[8] = tested on: SK-MEL-5 melanoma
[9] = tested on: A498 renal
[10] = tested on: SF-539 CNS

SMILES | GI50 [1] | TGI [1] | GI50 [2] | TGI [2] | GI50 [3] | TGI [3] | GI50 [4] | TGI [4] | GI50 [5] | TGI [5] | GI50 [6] | TGI [6] | GI50 [7] | TGI [7] | GI50 [8] | TGI [8] | GI50 [9] | TGI [9] | TGI [10] | GI50 [10]
O=[N+]([O-])c1cc([N+](=O)[O-])c(Cl)c(Cl)c1Cl | 1.54 µM | 5.01 µM | 1.8 µM | 3.65 µM | 2.07 µM | 4.69 µM | 0.477 µM | 1.99 µM | 2.74 µM | 10.5 µM | 3.36 µM | 12 µM | 2.69 µM | 8.04 µM | 1.75 µM | 3.35 µM | 5.2 µM | 17.9 µM | – | –
NC(C/[N+]([O-])=N/O)C(=O)O (configuration not stated) | > 43.8 µM and 46.5 µM and 18 µM | > 500 µM | > 66.2 µM and > 100 µM and 30.9 µM | > 459 µM | – | > 100 µM and 176 µM | – | > 395 µM | – | > 100 µM and 371 µM | 0.595 µM and 5.93 µM and 1.36 µM | > 100 µM and 268 µM | 3.85 µM and 12.6 µM and 1.61 µM | > 100 µM and 154 µM | 1.9 µM and 8.31 µM and 1.46 µM | > 42.7 µM and > 100 µM and 114 µM | – | – | > 100 µM and 366 µM | –
CCCN(CCCN)/[N+]([O-])=N\O | – | > 100 µM | – | – | – | > 100 µM | – | > 100 µM | – | 0.921 µM | – | > 100 µM | – | > 100 µM | – | > 100 µM | – | – | > 100 µM | –
O=C(CC(=O)c1ccc([N+](=O)[O-])cc1)C(=O)Nc1nccs1 | – | > 100 µM | – | > 100 µM | – | > 100 µM | – | > 100 µM | – | > 100 µM | – | > 100 µM | – | > 100 µM | – | > 100 µM | – | – | > 100 µM | –
N=Nc1c(OC(=O)Nc2ccccc2)[nH]c2ccccc12 | – | 32.1 µM | – | 60.8 µM | – | – | – | 96.2 µM | – | > 100 µM | – | 63 µM | – | 33.2 µM | – | 51.9 µM | – | 34.7 µM | 37.4 µM | –
O=S1CSCS1 (configuration not stated) | – | – | – | > 100 µM | – | > 100 µM | – | > 100 µM | – | > 100 µM | – | > 100 µM | – | > 100 µM | – | > 100 µM | – | > 100 µM | > 100 µM | –
COc1cc(=O)oc(/C=C/C=O)c1C | – | – | – | 76.2 µM | – | 83.9 µM | – | 40.7 µM | – | 94.6 µM | – | 28.5 µM | – | 46.7 µM | – | 38.4 µM | – | > 100 µM | 34.2 µM | –
CCN(CC)C(=O)CC1=C(C)/C(=C/c2[nH]c(-c3ccc[nH]3)cc2OC)N=C1C | 0.304 µM | 2.28 µM | 0.466 µM | 17.3 µM | 1.82 µM | 61.9 µM | 0.287 µM | 48.3 µM | 0.452 µM | 38.7 µM | 4.1 µM | > 100 µM | 0.794 µM | 71.9 µM | – | – | 0.98 µM | 7.12 µM | 12.2 µM | 0.498 µM
CC(=O)Nc1ccc(-c2c3nc(c(-c4cc5ccccc5[n+](C)c4)c4ccc([nH]4)c(-c4ccc(NC(C)=O)cc4)c4nc(c(-c5cc6ccccc6[n+](C)c5)c5ccc2[nH]5)C=C4)C=C3)cc1 | 21.6 µM | > 50 µM | 15.2 µM | 44.6 µM | 10.1 µM | 29.2 µM | 40.3 µM | > 50 µM | 9.09 µM | 31.6 µM | 10.9 µM | 49.1 µM | 17.3 µM | > 50 µM | 21.8 µM | > 50 µM | 5.16 µM | 36.2 µM | – | –
CCC1=C(C)/C(=C/c2[nH]c(C(Br)Br)c(CC)c2C)N=C1C(Br)Br | – | 39.9 µM | – | > 100 µM | – | 52.2 µM | – | > 100 µM | – | > 100 µM | – | > 100 µM | – | > 100 µM | – | 32.1 µM | – | – | > 100 µM | –
CN1CCN(CCCOc2cccc3nc(Nc4ccc(Cl)c(F)c4)ccc23)CC1 | 2.55 µM | 5.88 µM | 1.81 µM | 3.28 µM | – | – | 1.41 µM | 2.8 µM | 1.89 µM | 3.86 µM | 1.86 µM | 3.53 µM | 1.75 µM | 3.43 µM | 1.78 µM | 3.17 µM | 2.39 µM | 8.28 µM | 3.04 µM | 1.53 µM
O=C(Cn1c(=O)c(-c2ccccc2)nc2ccccc21)c1ccc(Cl)cc1 | 57.8 µM | > 100 µM | 25.7 µM | > 100 µM | – | – | 41.7 µM | > 100 µM | 94.2 µM | > 100 µM | 42.2 µM | > 100 µM | > 100 µM | > 100 µM | > 100 µM | > 100 µM | – | – | – | –
Clc1ccccc1C(n1ncc2ccccc21)n1ncc2ccccc21 | – | 63.3 µM | – | > 100 µM | – | 50.1 µM | – | > 100 µM | – | – | – | > 100 µM | – | > 100 µM | – | 57.7 µM | – | > 100 µM | > 100 µM | –
CC(N=C(N)N)C(=O)O (configuration not stated) | – | > 100 µM | – | > 100 µM | – | – | – | > 100 µM | – | > 100 µM | – | > 100 µM | – | > 100 µM | – | > 100 µM | – | > 100 µM | – | –
NC(N)=NS(=O)(=O)c1ccc(Nc2c3ccccc3nc3c(C(=O)N4CCN(CCO)CC4)cccc23)cc1 | – | – | – | > 100 µM | – | > 100 µM | – | > 100 µM | – | > 100 µM | – | > 100 µM | – | > 100 µM | – | > 100 µM | – | > 100 µM | > 100 µM | –
COC(=O)[C@H]1[C@H]2C[C@@H]3c4[nH]c5cc(OC)ccc5c4CCN3C[C@H]2C[C@@H](OC(=O)c2cc(OC)c(OC)c(OC)c2)[C@@H]1OC | – | 39.5 µM | – | 38 µM | – | 30.5 µM | – | 29.8 µM | – | – | – | 41 µM | – | 41.7 µM | – | 54.3 µM | – | – | 23.8 µM | –
O=C(Cc1nc2ccccc2c(=O)n1-c1c(Cl)cccc1Cl)c1ccncc1 | – | – | – | > 10 µM | – | 30.6 µM | – | 45.8 µM | – | > 100 µM | – | > 100 µM | – | > 100 µM | – | 29.4 µM | – | 72.3 µM | 34.5 µM | –
O=C1c2ccccc2C(=O)C2C1C1C(=O)c3ccccc3C(=O)C21 (configuration not stated) | – | – | – | > 100 µM | – | > 100 µM | – | > 100 µM | – | > 100 µM | – | > 100 µM | – | > 100 µM | – | > 100 µM | – | – | > 100 µM | –
Cc1cc(Cc2cc(C)c(O)c(C)c2)cc(C)c1O | 3.89 µM | 30.9 µM | 11.2 µM | 56.8 µM | 2.89 µM | 9.86 µM | 8.87 µM | 33.8 µM | – | – | 7.81 µM | > 100 µM | 11.3 µM | 74 µM | 4.53 µM | 17.5 µM | 11.9 µM | 35.5 µM | 14.2 µM | 3.25 µM
